Experimental data published in US20120022024A1, “ANTI-BACTERIAL COMPOSITIONS AND METHODS INCLUDING TARGETING VIRULENCE FACTORS OF STAPHYLOCOCCUS AUREUS” (priority 2009, published 2012).
Counter-ions that a name gives are not always drawn. Like-named read-outs stand apart in the source and are kept apart here.

Columns and labels:
[1] = system: staphyloxanthin (STX) biosynthesis in S. aureus; assay: Staphyloxanthin biosynthesis inhibition assay; assay type: cell-based, Staphylococcus aureus
Description: The question next arises: how potent are these compounds in inhibiting STX biosynthesis in S. aureus? We thus treated S. aureus bacteria with serially diluted compounds at 37° C. for 3 days, after which the STX pigment was extracted with methanol. Optical densities were measured at 450 nm and IC50 values for inhibition of pigment formation for each compound were calculated using a standard dose-response curve. The rank ordered IC50 values of the 38 compounds investigated are shown in Table 7 and dose-response curves of representative compounds are shown in FIG. 2.
The S. aureus strain used was the WT clinical isolate (Pig1) (4). S. aureus was cultured in THB (1 mL) in the presence of inhibitor compounds for 72 h, in duplicate. Cells were then centrifuged and washed twice with PBS. STX was extracted with MeOH and the O.D. was determined at 450 nm using a Perkin Elmer MBA 2000 (Norwalk, Conn.) spectrophotometer.

[2] = molecular target: S. aureus CrtM (dehydrosqualene synthase) (Staphylococcus aureus, UniProt A9JQL9); assay: CrtM enzyme inhibition assay
Chain of S. aureus CrtM (dehydrosqualene synthase) (A9JQL9 whole entry): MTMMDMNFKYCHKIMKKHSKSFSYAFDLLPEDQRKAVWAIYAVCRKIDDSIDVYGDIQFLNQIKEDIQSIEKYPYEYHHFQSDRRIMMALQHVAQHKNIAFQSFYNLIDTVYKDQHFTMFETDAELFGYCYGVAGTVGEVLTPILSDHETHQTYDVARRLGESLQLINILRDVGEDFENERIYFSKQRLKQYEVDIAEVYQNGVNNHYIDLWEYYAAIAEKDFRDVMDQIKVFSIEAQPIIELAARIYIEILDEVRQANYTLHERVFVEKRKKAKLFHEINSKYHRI

[3] = Staphylococcus aureus, read-out: IC50(STX)
[4] = Table 7, S. aureus, 37° C., 3 days, read-out: Staphyloxanthin IC50
[5] = read-out: CrtM IC50 values, Table 4
[6] = read-out: CrtM enzyme experimental activity IC50, Table 5
[7] = Staphylococcus aureus, 72 h, read-out: Staphyloxanthin IC50

Compound | IC50 [1, 3] | IC50 [2] | IC50 [1, 4] | IC50 [2, 6] | IC50 [1, 7] | other results
O=C(CS(=O)(=O)O)NCCCc1cccc(Oc2ccccc2)c1 [compound 884] | 15 µM | 171 µM |  |  |  | 
O=P(O)(O)CS(=O)(=O)NCCCc1cccc(Oc2ccccc2)c1 [compound 841] | > 500 µM | 1640 µM |  |  |  | 
O=C(CP(=O)(O)O)OCCCc1cccc(Oc2ccccc2)c1 [compound 887] | 1.5 µM | 1190 µM |  |  |  | 
O=C(CP(=O)(O)O)N(O)CCCc1cccc(Oc2ccc(Cl)c(Cl)c2)c1 [compound 927] | 0.042 µM | 67.2 µM |  |  |  | 
1-Phosphono-4-[3-(3,4-dichlorophenoxy)phenyl]butylsulfonic acid tripotassium salt [Compound 31] |  |  | 0.011 µM | 2.2 µM |  | CrtM enzyme experimental activity pIC50 ([2]; Table 5): 5.65; IC50 [2, 5]: 2.2 µM
1-Phosphono-4-[3-(3,5-difluorophenoxy)phenyl]butylsulfonic acid tripotassium salt [Compound 33] |  |  | 0.015 µM | 4.6 µM |  | CrtM enzyme experimental activity pIC50 ([2]; Table 5): 5.34; IC50 [2, 5]: 4.6 µM
O=C(O)CC(=O)NCCCc1cccc(Oc2ccccc2)c1 [compound 888] |  | > 1500 µM |  |  |  | 
O=P(O)(O)CP(=O)(O)CCCCc1cccc(Oc2ccccc2)c1 [compound 885] | 0.44 µM | 45 µM |  |  |  | 
O=C(CP(=O)(O)O)NCCCCc1cccc(Oc2ccccc2)c1 [compound 898] | 35 µM | 1080 µM |  |  |  | 
1-Phosphono-4-[3-(3,5-dichlorophenoxy)phenyl]butylsulfonic acid tripotassium salt [Compound 34] |  |  | 0.051 µM | 6.3 µM |  | CrtM enzyme experimental activity pIC50 ([2]; Table 5): 5.2; IC50 [2, 5]: 6.3 µM
O=C(NO)C(CCCc1cccc(Oc2ccccc2)c1)P(=O)(O)O (stereo not drawn) [compound 809] | 4.23 µM | 859 µM |  |  |  | 
O=C(CP(=O)(O)O)NCCCc1cccc(Oc2ccc(Cl)c(Cl)c2)c1 [compound 886] | 0.04 µM | 7 µM |  |  |  | 
1-Phosphono-4-[3-[4-(furan-2-yl)phenoxy]phenyl]butylsulfonic acid tripotassium salt [Compound 29] |  |  | 1.1 µM | 26.3 µM |  | CrtM enzyme experimental activity pIC50 ([2]; Table 5): 4.58; IC50 [2, 5]: 26.3 µM
O=P([O-])([O-])[C@H](CCCc1cccc(Oc2ccccc2)c1)S(=O)(=O)[O-].[K+].[K+].[K+] [Compound (S)-1, (1S)-1-Phosphono-4-(3-phenoxyphenyl)butylsulfonic acid tripotassium salt] |  |  |  |  | 0.05 µM | more active than its (R)-enantiomer in CrtM inhibition ([2]; fold, versus (R)-1): ~30 ×; IC50 ([2]; read-out: IC50 against CrtM): 1.4 µM
1-Phosphono-4-[3-(3-fluorophenoxy)phenyl]butylsulfonic acid tripotassium salt [Compound 20] |  |  | 0.22 µM | 2.2 µM |  | CrtM enzyme experimental activity pIC50 ([2]; Table 5): 5.66; IC50 [2, 5]: 2.2 µM
O=C(CP(=O)(O)O)NCCCc1cccc(Oc2ccc(Cl)cc2)c1 [compound 926] | 0.028 µM | 15.3 µM |  |  |  | 
1-Phosphono-4-[3-(4-fluorophenoxy)-6-fluoro-phenyl]butylsulfonic acid tripotassium salt [Compound 35] |  |  | 0.059 µM | 2.1 µM |  | CrtM enzyme experimental activity pIC50 ([2]; Table 5): 5.68; IC50 [2, 5]: 2.1 µM
O=P([O-])([O-])C(CCCc1cccc(Oc2ccc(F)cc2)c1)S(=O)(=O)[O-].[K+].[K+].[K+] (stereo not drawn) [Compound 5, 1-Phosphono-4-[3-(4-fluorophenoxy)phenyl]butylsulfonic acid tripotassium salt] |  | 2.34 µM |  |  | 0.052 µM | Ki [2]: ~0.005 µM; as active as 1 in CrtM inhibition ([2]; fold more active, versus 1): ~4 ×; IC50 ([2]; read-out: IC50 against CrtM): 2.3 µM
CCCCc1ccc(-c2ccc(CCCC(P(=O)([O-])[O-])S(=O)(=O)[O-])cc2)cc1.[K+].[K+].[K+] (stereo not drawn) [Compound 12, 1-Phosphono-4-[4-(4-butylphenyl)phenyl]butylsulfonic acid tripotassium salt] |  |  |  |  | 0.16 µM | 
Cc1ccc(-c2ccc(CCCC(P(=O)(O)O)S(=O)(=O)O)cc2)cc1 (stereo not drawn) [Compound 11, 1-Phosphono-4-[4-(4-methylphenyl)phenyl]butylsulfonic acid tripotassium salt] |  |  |  | 24.5 µM | 0.18 µM | 
1-Phosphono-4-[3-(4-chlorophenoxy)phenyl]butylsulfonic acid tripotassium salt [Compound 24] |  |  | 0.039 µM | 2.5 µM |  | CrtM enzyme experimental activity pIC50 ([2]; Table 5): 5.6; IC50 [2, 5]: 2.5 µM
O=P(O)(O)C(CCCc1cccc(Oc2ccc(C(F)(F)F)cc2)c1)S(=O)(=O)O (stereo not drawn) [Compound 7, 1-Phosphono-4-[3-(4-trifluoromethylphenoxy)phenyl]butylsulfonic acid tripotassium salt] |  |  |  |  | 0.04 µM | IC50 [2, 5]: 7.2 µM

Compound | IC50 [1, 3] | IC50 [2] | IC50 [1, 4] | IC50 [2, 6] | IC50 [1, 7] | other results
Cc1ccc(-c2ccc(CCCN(O)C(=O)CP(=O)(O)O)cc2)cc1 [compound 826] | 4.11 µM | > 1500 µM |  |  |  | 
CCCOc1cccc(-c2ccc(CCCC(P(=O)(O)O)S(=O)(=O)O)cc2)c1 (stereo not drawn) [Compound 13, 1-Phosphono-4-[4-(3-propoxyphenyl)phenyl]butylsulfonic acid tripotassium salt] |  |  |  | 123 µM | 0.49 µM | 
CC(C)(C)c1ccc(Oc2cccc(CCCC(P(=O)(O)O)S(=O)(=O)O)c2)cc1 (stereo not drawn) [Compound 25, 1-Phosphono-4-[3-(4-tert-butylphenoxy)phenyl]butylsulfonic acid tripotassium salt] |  |  |  |  | 0.021 µM | IC50 ([1]; Staphylococcus aureus, read-out: IC50 (STX)): 0.021 µM; IC50 ([2]; read-out: IC50 (CrtM), Table 1): 10.5 µM
O=C(CP(=O)(O)O)NCCc1cccc(Oc2ccccc2)c1 [compound 897] | 3 µM | 323 µM |  |  |  | 
1-Phosphono-4-[3-(4-phenoxyphenoxy)phenyl]butylsulfonic acid tripotassium salt [Compound 28] |  |  | 0.1 µM |  |  | 
O=P(O)(O)C(CCCc1cccc(Nc2ccccc2)c1)S(=O)(=O)O (stereo not drawn) [Compound 16, 1-Phosphono-4-(3-phenylaminophenyl)butylsulfonic acid tripotassium salt] |  |  |  |  | 0.5 µM | IC50 ([2]; read-out: IC50 against CrtM): 43.7 µM
O=P(O)(O)C(CCCc1ccc(-c2ccccc2)cc1)P(=O)(O)O [Compound 2, 4-(4-Biphenyl)butyldiphosphonic acid tetrapotassium salt] |  | 0.48 µM |  |  | 2.2 µM | Ki [2]: ~0.001 µM; IC50 ([2]; read-out: IC50 against CrtM): 0.5 µM
1-Phosphono-4-[3-(3-trifluoromethylphenoxy)phenyl]butylsulfonic acid tripotassium salt [Compound 22] |  |  | 0.074 µM | 9.8 µM |  | CrtM enzyme experimental activity pIC50 ([2]; Table 5): 5.01; IC50 [2, 5]: 9.8 µM
1-Phosphono-4-[3-(4-hydroxyphenoxy)phenyl]butylsulfonic acid tripotassium salt [Compound 27] |  |  | 6.8 µM |  |  | 
O=C(CP(=O)(O)O)N(O)Cc1cccc(-c2cccc(-c3ccccc3)c2)c1 [compound 810] | 158 µM | 597 µM |  |  |  | 
1-Phosphono-4-[3-(4-fluorophenoxy)-6-methoxy-phenyl]butylsulfonic acid tripotassium salt [Compound 36] |  |  | 13.8 µM |  |  | 
O=P(O)(O)C(CCCc1ccc(-c2ccc(F)cc2F)cc1)S(=O)(=O)O (stereo not drawn) [Compound 10, 1-Phosphono-4-[4-(2,4-difluorophenyl)phenyl]butylsulfonic acid tripotassium salt] |  |  |  | 9.1 µM | 0.18 µM | 
O=P([O-])([O-])C(CCCc1ccc(Oc2ccccc2)cc1)S(=O)(=O)[O-].[K+].[K+].[K+] (stereo not drawn) [Compound 18, 1-Phosphono-4-(4-phenoxyphenyl)butylsulfonic acid tripotassium salt] |  |  |  |  | 0.19 µM | 
CN(CCCc1cccc(Oc2ccccc2)c1)C(=O)CP(=O)(O)O [compound 848] | 8.6 µM | 193 µM |  |  |  | 
O=P(O)(O)[C@@H](CCCc1cccc(Oc2ccccc2)c1)S(=O)(=O)O [Compound (R)-1, (1R)-1-Phosphono-4-(3-phenoxyphenyl)butylsulfonic acid tripotassium salt] |  |  |  |  | 0.31 µM | 
1-Phosphono-4-[3-(2-fluorophenoxy)phenyl]butylsulfonic acid tripotassium salt [Compound 21] |  |  | 0.51 µM | 6.9 µM |  | CrtM enzyme experimental activity pIC50 ([2]; Table 5): 5.16; IC50 [2, 5]: 6.9 µM
O=C(CP(=O)(O)O)NCCCc1ccc(-c2ccccc2)cc1 [compound 846] |  | 165 µM |  |  |  | 
1-Phosphono-4-[3-(benzofuran-5-yloxy)phenyl]butylsulfonic acid tripotassium salt [Compound 32] |  |  | 0.015 µM | 2.1 µM |  | CrtM enzyme experimental activity pIC50 ([2]; Table 5): 5.67; IC50 [2, 5]: 2.1 µM
CP(=O)([O-])C(CCCc1ccc(-c2ccccc2)cc1)P(=O)([O-])[O-].[K+].[K+].[K+] (stereo not drawn) [Compound 4, dipotassium salt] |  |  |  |  | 1.4 µM | 
O=P([O-])([O-])C(CCCc1ccc(-c2ccccc2)cc1)S(=O)(=O)[O-].[K+].[K+].[K+] (stereo not drawn) [Compound 9, 1-Phosphono-4-(4-biphenyl)butylsulfonic acid tripotassium salt] |  |  |  |  | 0.35 µM | 
CCn1c2ccccc2c2cc(CCCC(P(=O)(O)O)S(=O)(=O)O)ccc21 (stereo not drawn) [Compound 19, 1-Phosphono-4-(9-ethylcarbazole-3-yl)butylsulfonic acid tripotassium salt] |  |  |  |  | 263 µM | 
